{"source": "paper PMC11505029", "about": "“Isatin Bis-Imidathiazole Hybrids Identified as FtsZ Inhibitors with On-Target Activity Against Staphylococcus aureus” (Antibiotics, 2024)", "origin": "cited, not measured here", "set-up_in_all_cases": "method as in PMID 36144518", "key": {"S. aureus ATCC 25923": {"tested_on": "S. aureus ATCC 25923", "details": "cited from earlier work"}, "E. coli ATCC 25922": {"tested_on": "E. coli ATCC 25922", "details": "100 μM; mean ± SD; cited from earlier work"}, "C. albicans ATCC 10231": {"tested_on": "C. albicans ATCC 10231", "details": "100 μM; mean ± SD; cited from earlier work"}, "[1]": {"tested_on": "Vero cell line (ATCC CCL-81)", "details": "100 μM; mean ± SD; cited from earlier work"}}, "data": [{"smiles": "COc1ccc2c(c1)C(c1c(Cl)nc3sccn13)(c1c(Cl)nc3sccn13)C(=O)N2", "note": "[Compound 6k]", "values": [{"measurement": "Microbial growth, S. aureus", "setting": "S. aureus ATCC 25923; 100 μM, mean ± SD", "value": "43.4 ± 5.6", "unit": "%"}, {"measurement": "IC50", "setting": "S. aureus ATCC 25923; S. aureus, lead compounds", "value": 80, "unit": "µM"}, {"measurement": "Microbial growth, E. coli", "setting": "E. coli ATCC 25922", "value": "102.7 ± 2.4", "unit": "%"}, {"measurement": "Microbial growth, C. albicans", "setting": "C. albicans ATCC 10231", "value": "104.1 ± 1.9", "unit": "%"}, {"measurement": "Cell proliferation, Vero", "setting": "[1]", "value": "70.9 ± 5.6", "unit": "%"}]}]}
